Test [1] deals with herpes simplex virus. In words: organism not typed. Type of test: cell-based.
Test [2] relates to influenza A2 virus, Hong Kong strain. Kind of test: antiviral potency against influenza A2 virus, Hong Kong strain, in tissue culture (baby hamster kidney cell line). Type of test: cell-based. The note with it: for log reduction at 3 µg/mL / log reduction at 10 µg/mL: read-out: Log Decrease in Infectivity of Virus Inoculum. How it is done:
Well established methodology of the prior art was employed to determine the antiviral potency of compounds against influenza A2 virus, Hong Kong strain, in tissue cultures, employing the baby hamster kidney cell line (see R. L. Muldoon, L. Mezny and G. G. Jackson in Antimicrobial Agents and Chemotherapy 2:224-228, 1972). Virus infectivity was evaluated by both hemagglutination techniques and cytopathogenic effects, with identical results for each method. In Table 1 below, the virus-inhibiting effects of two low drug concentrations, 3 and 10 μg/ml, are depicted. Results are given as the log decrease in infectivity of the virus inoculum. A log decrease of 4.0 is the maximum obtainable, representing complete suppression of virus growth in the system. The virus inoculum of day 0 was always 100 times that amount required to kill 50% of the tissue culture cells (100 TCD50).

The test system of test [3] is influenza A/PR/8. Kind of test: prevention of death in mice ill with a lethal influenza A/PR/8 infection. Type of test: in vivo. The note with it: once 90 minutes before infection; for % of Population Protected / % Mortality: 8 days; for % Mortality: control 95; for Mortality Frequency at 8 Days: control 42/44. How it is done:
The above medication was also examined for its capacity to prevent death in mice ill with a lethal influenza A/PR/8 infection. The drug was given subcutaneously at 3 dose levels, once 90 minutes before infection.

For test [4], the system named is influenza A2/Hong Kong disease. In words: suppression of influenza A2/Hong Kong disease in mice. The test is classed as in vivo. The note with it: infected treated, 40 mg/Kg orally, at 8 days.
[5] abbreviates: 3 μg/ml, inoculum 100 TCD50, 4.0 is the maximum obtainable.
Where [6] appears, read: 10 μg/ml, inoculum 100 TCD50, 4.0 is the maximum obtainable.
Where [7] appears, read: herpes simplex virus, tissue culture.

Where two headings read alike, the source gives them in different places.

On to “3-O-2'-(N',N'-dimethylaminopropyl)-D-glucopyranose”, for which, in test [1], the “Concentration required to exert 50% inhibition of herpes-induced plaque formation” value worked out at 3 µg/mL and the “Concentration required to exert 100% inhibition of herpes-induced plaque formation” value is over 20 µg/mL. Further, in test [2] (setting [5]), the “Log Decrease in Infectivity of Virus Inoculum” value (“Log Decrease in Infectivity” below) turned out to be 1.0 log. Also, in test [2] (setting [6]), the “Log Decrease in Infectivity” value was 2.0 log.
Consider `CN1CCC(O[C@@H]2[C@H]3OC(C)(C)O[C@H]3O[C@@H]2[C@H]2COC(C)(C)O2)CC1` [1,2,5,6-di-O--isopropylidene-3-O--4'-(N--methyl-piperidyl)-D-glucofuranose], for which, in test [1] (read-out: Concentration required to exert 50% inhibition of herpes-induced plaque formation, herpes simplex virus, tissue culture), the IC50 is under 3 µg/mL.
In the case of `CCN(CC)CCOC1C(C2COC(C)(C)O2)OC2OC(C)(C)OC21` [1,2:5,6-di-O-isopropylidene-3-O-2'-(N',N'-diethylaminoethyl)-D-glucofuranose], in test [1] (setting [7]), the “Concentration required to exert 50% inhibition of herpes-induced plaque formation” value was determined as 6 µg/mL and the “Concentration required to exert 100% inhibition of herpes-induced plaque formation” value was determined as 30 µg/mL.
With `CCN(CC)CCO[C@H]1[C@H](O)[C@@H](CO)OC(O)[C@@H]1O` (stereo partly drawn) [3-O-2'-(N',N'-diethylaminoethyl)-D-glucose], the log reduction at 3 µg/mL in test [2] (setting [5]) was 0.5. For the same compound, the log reduction at 10 µg/mL in test [2] (setting [6]) was found to be 1.
Regarding `CN(C)CCO[C@H]1[C@H](O)[C@@H](CO)OC(O)[C@@H]1O` (stereo partly drawn) [3-O-2'-(N',N'-dimethylaminoethyl)-D-glucopyranose], in test [2] (setting [5]), the log reduction at 3 µg/mL is 2.5. Further, in test [2] (setting [6]), the log reduction at 10 µg/mL worked out at 3.5.
For the compound `CC(CO[C@H]1[C@H](O)[C@@H](CO)OC(O)[C@@H]1O)CN(C)C` (stereo partly drawn) [3-O-3'-(2',N',N'-trimethylamino-n-propyl)-D-glucopyranose], in test [2] (setting [5]), the log reduction at 3 µg/mL is 2.4. Moreover, in test [2] (setting [6]), the log reduction at 10 µg/mL is 3.
With `CN(C)CCCO[C@H]1[C@H](O)[C@@H](CO)OC(O)[C@@H]1O` (stereo partly drawn) [3-O-3'-(N',N'-dimethylamino-n-propyl)-D-glucopyranose], the relative antiviral potency entry in test [1] is listed as “the most potent derivative”; in test [2] (influenza A2, among tested derivatives) it was “the most potent effect”. Moreover, the “% of Population Protected” value in test [3] (10 mg/Kg subcutaneously) came to 14%; in test [3] (40 mg/Kg subcutaneously), 23%; in test [3] (160 mg/Kg subcutaneously), 50%. The “% Mortality” value in test [3] (10 mg/Kg subcutaneously) is 81%; in test [3] (40 mg/Kg subcutaneously) it was 72%; in test [3] (160 mg/Kg subcutaneously), 45%. Further, the “Mortality Frequency at 8 Days” value in test [3] (10 mg/Kg subcutaneously) is 18/22; in test [3] (40 mg/Kg subcutaneously) it was 16/22; in test [3] (160 mg/Kg subcutaneously), 10/22. Besides, the log reduction at 3 µg/mL in test [2] worked out at 3.2. Moreover, the log reduction at 10 µg/mL in test [2] came to 4. For the same compound, the “Frequency of Normal Lungs (<170 mg)” value in test [4] (normal 12/21, infected control 1/21) was 13/21. In addition, the “Average Lung Weight” value in test [4] (beginning 24 hours post-infection, 50% of drug 1,2-acetone-blocked, normal 160, infected control 258) amounted to 177 mg. Further, in test [4] (beginning 24 hours post-infection, lung weight), the “% Disease Suppression” value was 82%.
`NCCCO[C@H]1[C@H](O)[C@@H](CO)OC(O)[C@@H]1O` (stereo partly drawn) [3-O--3'-n-propylamino-D-glucose, 3-O-3'-(n-propylamino)-D-glucopyranose]: the IC100 in test [1] (read-out: Concentration required to exert 100% inhibition of herpes-induced plaque formation, herpes simplex virus, tissue culture) was determined as 20 µg/mL.
As for `CN1CCC(O[C@H]2[C@H](O)[C@@H](CO)OC(O)[C@@H]2O)CC1` (stereo partly drawn) [3-O--4'-(N--methylpiperidyl)-D-glucose, 3-O-4'-(N-methylpiperidyl)-D-glucopyranose], in test [2], the log reduction at 3 µg/mL is 2.5 and the log reduction at 10 µg/mL was determined as 3.5.
For `CC(CN(C)C)OC[C@H]1OC(O)[C@H](O)[C@@H](O)[C@H]1O` (stereo partly drawn) [6-O-2'-(N',N'-dimethylaminopropyl)-D-galactose], the “Log Decrease in Infectivity” value is given as 0.1 log in test [2] (setting [5]) and 0.5 log in test [2] (setting [6]).
For the compound `CN(C)CCCOC[C@H]1OC(O)[C@H](O)[C@@H](O)[C@H]1O` (stereo partly drawn) [6-O-3'-(N',N'-dimethylamino-n-propyl)-D-galactopyranose], the log reduction at 3 µg/mL in test [2] (setting [5]) worked out at 1. Further, the log reduction at 10 µg/mL in test [2] (setting [6]) came out at 2.
Take `CC(CN(C)C)O[C@H]1O[C@H](CO)[C@@H](O)[C@H](O)[C@H]1O` (stereo partly drawn) [α-N,N--dimethylaminoisopropylglucoside, α-N,N-dimethylaminoisopropyl-D-glucoside]: in test [1] (setting [7]), the “Concentration required to exert 50% inhibition of herpes-induced plaque formation” value came out at 10 µg/mL and the “Concentration required to exert 100% inhibition of herpes-induced plaque formation” value was over 50 µg/mL. Besides, in test [2] (setting [5]), the “Log Decrease in Infectivity” value came out at 1.5 log. The “Log Decrease in Infectivity” value in test [2] (setting [6]) stood at 2.5 log.

The record behind these values is patent USRE32268E, “Therapeutic composition and method of therapeutically treating warm blooded animals therewith” (Strategic Medical Research Corp., priority 1983, dated 1986).
